On the set-up of data set [1]: unit not given here. The conditions noted are these: typical value, general description; cited from earlier work.
The next data set deals with laser-induced CNV. Kind of data set: Fluorescein angiography grading of leakage and CNV closure in the rat model of laser-induced CNV. Type of data set: in vivo, Brown Norway rats. As for the experimental part: (§1) Briefly, CNV membranes were induced in Brown-Norway rats using an Argon/Dye laser while either 17AAG at a total dose of approximately 2 mg or the vehicle (DMSO) was continuously administered. Verterporfin PDT was performed 14 days after CNV induction at a verterporfin dose of 3 mg/m^2, an irradiance of 600 mW/cm^2, and a fluence of 25 J/cm^2. Choroidal neovasculature closure on fluorescein angiograms was assessed 24 hours and 7 days after PDT in a masked fashion using grading standards. Retinal levels of p42/44 MAPK, HIF-1a, NF-kB, VEGF, and endostatin were assessed with a modified enzyme-linked immunoabsorbant assay (“ELISA”) method. […] The combination of 17-allylamino-17-demethoxygeldanamycin treatment and PDT treatment was also synergistic with respect to increased endostatin levels.
All experiments adhered to the Association for Research in Vision and Ophthalmology Statement for the Use of Animals in Ophthalmic and Vision Research and the guidelines established by the Animal Care Committee of the Massachusetts Eye and Ear Infirmary. Brown Norway rats (Charles River Laboratory, Wilmington, Mass.) were anesthetized via an intramuscular injection of 50 mg/kg of ketamine hydrochloride and 10 mg/kg of xylazine. Pupils were dilated with a topical application of 5% phenylephrine and 0.8% tropicamide. […]
Fluorescein angiography (“FA”) was performed 14 days after the initial laser treatment using a digital fundus camera system (model TRC 501A Topcon, Paramus, N.J.) and standard fluorescein filters to determine if CNV induction was successful. […] All angiograms were evaluated in masked fashion by two independent retina specialists using grading standards regarding severity of CNV (baseline FAs) and CNV closure (24 hours FAs).
PDT with verteporfin was performed on experimental CNV. […] The body surface area of each rat was determined based on their weight according to a nomogram developed by Gilpin (Gilpin et al. (1996) Burns 22(8): 607-1 1). […]

A further data set has as its system endostatin. The data set is described as follows: ELISA for retinal endostatin levels in laser-induced CNV rats. Type of data set: in vivo, Brown Norway rats. How it is done:
(§2) Briefly, CNV membranes were induced in Brown-Norway rats using an Argon/Dye laser while either 17AAG at a total dose of approximately 2 mg or the vehicle (DMSO) was continuously administered. Verterporfin PDT was performed 14 days after CNV induction at a verterporfin dose of 3 mg/m^2, an irradiance of 600 mW/cm^2, and a fluence of 25 J/cm^2. Choroidal neovasculature closure on fluorescein angiograms was assessed 24 hours and 7 days after PDT in a masked fashion using grading standards. Retinal levels of p42/44 MAPK, HIF-1a, NF-kB, VEGF, and endostatin were assessed with a modified enzyme-linked immunoabsorbant assay (“ELISA”) method. […]
Each retina was homogenized in 100 μl of solution consisting of 20 mM imidazole hydrochloride, 100 mM KCl, 1 mM MgCl, 1 mM EGTA, 1% Triton, 10 mM NaF, 1 mM sodium molybdynate and 1 mM EDTA supplemented with a cocktail of protease inhibitors (Complete, Roche, Basel, Switzerland) prior to use. Samples were cleared by centrifugation for 10 min. at 13,000 rpm and assessed for protein concentration with the BCA assay (Micro BCA™ Protein Assay Kit, Pierce Co., Rockford, Ill.). […] The reaction was stopped, and the absorption was measured in an ELISA reader at 450 nm. […] The tissue sample concentration was calculated from a standard curve and corrected for protein concentration.
(ELISA stands for enzyme-linked immunosorbent assay.)

Another data set relates to HIF-1a. The data set is described as follows: Quantification of retinal HIF-1a activation (Trans-AM transcription factor assay on retinal nuclear extract). Type of data set: in vivo, Brown Norway rats. As for the experimental part: as §2
(§3) NF-kB and HIF-1a activation was analyzed using the Trans-AM NF-kB p65/NF-kB p50 Transcription Factor Assay Kit (Active Motif North America, Carlsbad, Calif.) according to the manufacturer's instructions. Briefly, two micrograms of a retinal nuclear extract were incubated with an oligonucleotide containing the consensus binding element for each of the transcription factors analyzed bound to a 96-well plate. […] After washes, the plates were subsequently incubated with a secondary antibody conjugated to horseradish peroxidase (1:1000), and the peroxidase reaction was quantified at 450 nm with a reference wavelength of 655 nm. […]

Another data set has as its system NF-kB. Kind of data set: Quantification of retinal NF-kB activation (Trans-AM transcription factor assay on retinal nuclear extract). Type of data set: in vivo, Brown Norway rats. How it is done: as §2, §3
Another data set concerns p42/44 MAPK. Kind of data set: Retinal p42/44 MAPK activation (modified ELISA) in laser-induced CNV rats. Type of data set: in vivo, Brown Norway rats. As for the experimental part:
as §1
To achieve steady drug levels in the circulation of animals, 17AAG (Calbiochem EMD Biosciences, San Diego, Calif.) or the vehicle (DMSO, Sigma, St. Louis, Mo.) was administered by slow intraperitoneal release from osmotic pumps (Alzet, Cupertino, Calif.) instead of repeated intraperitoneal injections. Immediately following the induction of choroidal neovascularization, osmotic pumps (Alzet, Cupertino, Calif.) were implanted as previously described (Poulaki et al. (2002) J. Clin. Invest. 109(6): 805-15). […]

The values below come from patent publication US8658633B2, “Methods and compositions for treating conditions of the eye” (Massachusetts Eye and Ear Infirmary, priority 2006, dated 2014).

On to benzoporphyrin derivative, for which the “time the photosensitizer persists in the target neovasculature” value (shortened to “time the photosensitizer persists”) in data set [1] was “about fifty”.

In the case of `C=CCNC1=C2C[C@@H](C)C[C@H](OC)[C@H](O)[C@@H](C)/C=C(\C)[C@H](OC(N)=O)[C@@H](OC)/C=C\C=C(/C)C(=O)NC(=CC1=O)C2=O` [17AAG, 17-allylamino-17-demethoxygeldanamycin], the “lesions closed one week after PDT treatment” value in the data set on laser-induced CNV (grade IIB lesions, 17AAG in combination with verteporfin PDT, DMSO+PDT control 6 out of 17) is given as 12 out of the 14. For the same molecule, the “lesions closed one day after PDT treatment” value in the data set on laser-induced CNV (grade IIB lesions, 17AAG in combination with verteporfin PDT, DMSO+PDT control 9 out of 17) is on record as 12 out of the 14. The “lesions showing the highest grade (IIB) of leakage” value with laser-induced CNV (two weeks following CNV induction, 17AAG approx. 2 mg by i.p. osmotic pump, without PDT, P>0.05 vs DMSO (32 out of 53)) is recorded as 26 out of 47. Also, the “retinal levels of endostatin” value in the data set with endostatin (17AAG and PDT treated animals, 1 day after PDT, statistically significant vs laser treated 15.7±2.8) is listed as 258±6 O.D./μg tissue; in the data set on endostatin (17AAG and laser treated animals without PDT, P>0.05 vs laser treated 15.7±2.8), 32.34±6.11 O.D./μg tissue. In addition, the “retinal levels of HIF-1a activation” value is 0.946±0.06 O.D./μg tissue with HIF-1a (17AAG and PDT treated animals, 1 day after PDT, PDT without 17AAG 1.69±0.38); 1.064±0.136 O.D./μg tissue in the data set with HIF-1a (17AAG and laser treated animals without PDT, P>0.05 vs laser treated 1.06±0.1). The “retinal levels of NF-kB activation” value with NF-kB (17AAG and PDT treated animals, 1 day after PDT, PDT without 17AAG 13.7±0.3) is on record as 5.9±0.045 O.D./μg tissue; in the data set with NF-kB (17AAG and laser treated animals without PDT, P>0.05 vs laser treated 10.12±0.74) it was 9.54±1.47 O.D./μg tissue. Moreover, the “retinal levels of p42/44 MAPK activation” value with p42/44 MAPK (17AAG and PDT treated animals, 1 day after PDT, PDT without 17AAG 923±45) is on record as 417±6 O.D./μg tissue; with p42/44 MAPK (17AAG and laser treated animals without PDT, P>0.05 vs laser treated 603±1) it was 560±22 O.D./μg tissue.

For the molecule `CC(=O)[O-].CC(=O)[O-].CCc1c(CC)c2cc3nc(cnc4cc(OCCOCCOCCOC)c(OCCOCCOCCOC)cc4ncc4nc(cc1[n-]2)C(CCCO)=C4C)C(C)=C3CCCO.O.[Lu+3]` [lutetium texaphyrin], the “time the photosensitizer persists” value in data set [1] was “about twenty”.

As to `C=Cc1c(C)c2cc3nc(c(CC(=O)N[C@@H](CC(=O)O)C(=O)O)c4[nH]c(cc5nc(cc1[nH]2)C(C)=C5CC)c(C)c4C(=O)O)[C@@H](CCC(=O)O)[C@@H]3C` [N-aspartyl chlorin e6], the “time the photosensitizer persists” value in data set [1] is on record as “about twenty”.
